This note sets out measurements from patent publication US20110172296A1, “MODULATION OF TRANSFORMING GROWTH FACTOR-BETA 1 EXPRESSION” (priority 2010, published 2011).

The series deals with human TGF-beta1 mRNA. Briefly: Dose-dependent confirmation of antisense inhibition of human TGF-beta1 in HuVEC cells after large-scale synthesis, Lipofectamine 2000, 0.007-15 nM (Example 5). It counts as cell-based. The settings on record: for percent inhibition of TGF-beta1: Lipofectamine 2000. The method in brief: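 HuVEC cells were transfected with antisense oligonucleotide at 0.007–15 nM using Lipofectamine 2000 for 4 h, then allowed ~16 h recovery. TGF-beta1 mRNA was quantified by qRT-PCR (primer probe set RTS 2980), normalized to RIBOGREEN total RNA, and expressed as % inhibition versus untreated cells.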

e = 2'-O-(2-methoxyethyl) (MOE); d = 2'-deoxy (DNA)

One may read the IC50 as the concentration that inhibits the measured activity by half. High values mean weaker potency, low ones greater potency. Turning to “414036 (antisense GTGTCCTTAAATACAGCCCC; sugars from the 5' end e2 d13 e5, backbone and methylation of C not given here) [compound 414036]”, the “percent inhibition of TGF-beta1” value is, setting by setting: (0.007 nM) 5%; (0.021 nM) 26%; (0.062 nM) 41%; (0.185 nM) 58%; (0.556 nM) 73%; (1.667 nM) 84%. The “percent inhibition of TGF-beta1” value is listed as 91% (5 nM) and 90% (15 nM). Further, the concentration for half-maximal inhibition (IC50) (Lipofectamine 2000, Example 5) stood at 0.15 nM.
